According to patent publication EP4772500A1, “NOVEL ISOXAZOLE COMPOUND AS TM4SF5-SPECIFIC INHIBITOR AND USE THEREOF” (Seoul National University R&DB Foundation, priority 2023, dated 2025):

Experiments:
Human Jurkat T cells = assay: T cell activation (Granzyme B, PD-1) after PMA/INO; format: cell-based; conditions: for activation by PMA/INO (Granzyme B production): PMA (10 ng/ml) and INO (1 µg/ml), 24 hours (FIG. 18a)
Protocol: (a) Human Jurkat T cells were activated by treating with PMA (10 ng/ml) and INO (1 µg/ml) for 24 hours. A non-treated state was also included as a control. […] (b) Human Jurkat T cells were either not treated or treated with PMA (25 ng/ml) and INO (1 µg/ml) for 24 hours, and IL-21 was treated at a level of 50 ng/ml for the last 6 hours. Simultaneously with the PMA/INO treatment, ST-5-002 was treated or not treated at 2.5 µM. At this time, the expression levels of Granzyme B and PD-1, or the phosphorylation of Ser473 of AKTs and Thr202/Tyr204 of ERKs, were enhanced by PMA/INO.

[1] = test system: liver cancer patient-derived cancer fragments (HCC cube) confirmed to express TM4SF5; assay: TM4SF5-expressing HCC-PDX (patient-derived tissue xenograft) model; format: in vivo, NOD/SCID mice; conditions: for body weight: 5 mg/kg IP twice a week (FIG. 21c); for tumor volume: vs vehicle (FIG. 21c); for PD-L1 expression / SLAMF7 staining / expression of TM4SF5: immunohistochemistry (FIG. 21e); for expressions of Ki67, AFP, F4/80, CCL2 and CCL5, and laminin γ2: immunohistochemistry (FIG. 21d); for cancer formation: immunohistochemistry or H&E staining (FIG. 21d)
Protocol: The experiment was conducted by obtaining patient-derived liver cancer segments (P0; HCC cube, 1 mm^3) confirmed to express TM4SF5 from Seoul National University Hospital, which passed the normal IRB approval process (H-2102-059-1195). The hair from the right thigh to the flank of 6-week-old male NOD/SCID mice was removed, and the mice were anesthetized by inhalation with […] isoflurane. Thereafter, a cancer segment was implanted into the right […] of the mice. When the cancer segments were engrafted and grew beyond a certain size at 4 to 5 weeks after implanting the tissue, the animals were sacrificed to obtain cancer segments (P1). The cancer segments were cut into a size of 1 mm^3 and placed in cryotubes with Recovery-Cell Culture Freezing Medium (Gibco) and stored in a […] liquid nitrogen tank. After obtaining P2 and P3 cancer segments in the same manner as above, one P3 cancer segment (1 mm^3) was implanted per 6-week-old male NOD/SCID mouse to establish the HCC-PDX mouse model used in this experiment. From the 8th day after implanting the cancer segments, vehicle, drug ST-5-001, or ST-5-002 was intraperitoneally injected at 5 mg/kg twice a week for a total of 6 times. On the 28th day after implanting the cancer tissue, the animals were sacrificed, and liver cancer tissues were obtained and used for analysis.
(a-d) A TM4SF5-expressing HCC-PDX model was established by implanting liver cancer patient-derived cancer fragments (HCC cube, 1 mm^3), confirmed to express TM4SF5, into the right thigh of 6-week-old male NOD/SCID mice (n=8) deficient in T, B, and NK immune cells. Starting from the 8th day after the tissue implantation, vehicle, drug ST-5-001, or ST-5-002 was intraperitoneally injected at 5 mg/kg twice a week on the indicated dates (a). After 6 injections, the animals were sacrificed on the 28th day after the cancer tissue implantation, liver tissues were obtained, and images of the livers were taken (b). From the 8th day after the implantation, body weight and tumor volume were measured and recorded on each drug injection day (c). Meanwhile, for a portion of the liver tissues, the expression level, distribution, and localization of each factor, as well as the degree of damage to the liver cancer tissue, were confirmed through immunohistochemistry or H&E staining for the given protein factors (d).

Row | SMILES | activation by PMA/INO (Granzyme B production) (Human Jurkat T cells) | body weight [1] | tumor volume ([1]; 5 mg/kg IP twice a week) | PD-L1 expression [1] | SLAMF7 staining [1] | expression of TM4SF5 [1] | expressions of Ki67, AFP, F4/80, CCL2 and CCL5, and laminin γ2 [1] | cancer formation [1] | expression of Granzyme B and PD-1 (Human Jurkat T cells; PMA (25 ng/ml) and INO (1 µg/ml), 2.5 µM alone (FIG. 18b)) | level of Granzyme B (Human Jurkat T cells; PMA/INO, 2.5 µM together with IL-21 50 ng/ml (FIG. 18b)) | inhibitory effect on liver cancer formation ([1]; 5 mg/kg IP twice a week, 6 times, images (FIG. 21b))
1 | CC(=O)Nc1ccc(-c2cc(-c3ccc(O)cc3)no2)cc1 [ST-5-001, N-(4-(3-(4-hydroxyphenyl)isoxazole-5-yl)phenyl)acetamide] | further increased | not affected | significantly reduced | decrease | infiltrating into the cancer site | not significantly different | significantly inhibited and lowered | inhibited |  |  | 
2 | Cc1ccc(C(=O)Nc2ccc(-c3cc(-c4ccc(O)cc4)no3)cc2)cc1 [ST-5-002, N-(4-(3-(4-hydroxyphenyl)isoxazole-5-yl)phenyl)-4-methylbenzamide] | further increased | not affected | significantly reduced | decrease | infiltrating into the cancer site | not significantly different | significantly inhibited and lowered | inhibited | further increased | even higher | distinct
